Data reported in US20210113493A1, “KETAMINE FOR THE TREATMENT OF M[…] SYMPTOMS” (priority 2016, published 2021).

Key:
[1] = Aun, Br. J. Anaesthesia 83: 29-41 (1999); cited from earlier work
[2] = test system: symptoms of menstrual related pain and emotion; assay: Evaluation of sublingual ketamine lozenges/ODTs in women, Daily Record of Severity of Problems
[3] = test system: subclinical menstrually related symptoms; conditions: 50 mg lozenges, ½ to 2 once to three times daily

NC1(c2ccccc2Cl)CCCCC1=O (stereo not shown) [norketamine]
potency for use in anesthesia relative to ketamine [1]: one third the potency of ketamine

CN[C@]1(c2ccccc2Cl)CCCCC1=O [S-(+)-ketamine]
potency for use in anesthesia relative to R-(−)-ketamine [1]: twice as potent as R-(−)-ketamine

CNC1(c2ccccc2Cl)CCCCC1=O (racemic) [ketamine]
subjects reporting sufficient improvement with a 25 mg dose ([2]; 25 mg dose, 9 women): Three subjects reported sufficient improvement
interference with functionality ([2]; 50 mg dose, 9 women): One subject reported that a 50 mg dose interfered with their functionality
relief of PMS symptoms at 100 mg dose ([2]; 100 mg dose, preferred by three subjects): substantial relief of PMS symptoms
negative after effects ([2]; 9 women): no reports of negative after effects
subjects reporting emotional symptom improvement during the symptomatic days of their cycles ([2]; 9 women, 25-100 mg ketamine racemate sublingual lozenge/ODT): 9 subjects
duration of effect ([2]; all subjects, beyond the time of administration): lasting for days, or more, beyond the time of ketamine administration
effect on breast tenderness and cramping ([2]; physical symptoms, 9 women): positively affected in three subjects, but not in six others
improvement of headaches ([2]; physical symptoms, 9 women): Two subjects reported improvement of headaches
duration of anesthetic effects ([2]; sublingual, first hour the intense portion): up to 2 hours
duration of relief of physical symptoms ([2]; two subjects, doses of 50 mg and 100 mg, until menses began): 5 days

N[C@@]1(c2ccccc2Cl)CCC[C@@H](O)C1=O
mental clarity [3]: can experience an increase in mental clarity
